The series can be described thus: Unbound brain to plasma concentration ratio, Kp of the compound in rat at 1 mg/kg, iv for 4 hrs by LC-MS/MS analysis. Format: ADME, organism-based. The conditions noted are these: brain and plasma, read-out: K(p,uu,brain).
As for `CN(C)CCn1cc(-c2ccc3c(c2)C(=O)Nc2cccc(n2)-c2nncn2CCCCO3)cn1`, the Kp uu at 4 h was 1.

Consider `C[C@@H]1CCOc2cc(F)ccc2C(=O)Nc2cccc(n2)-c2nncn2C1`, for which the Kp uu at 4 h was 0.17.

On to `C[C@H]1CCCOc2cc(F)ccc2C(=O)Nc2cccc(n2)-c2nncn21`, for which the Kp uu at 4 h worked out at 0.09.

With `Cc1cn(-c2ccc3c(c2)C(=O)Nc2cccc(n2)-c2nncn2CCCCO3)cn1`, the Kp uu at 4 h was under 0.1.

Take `C[C@@H]1CCOc2cc(F)c(-c3cnn(CCN(C)C)c3)cc2C(=O)Nc2cccc(n2)-c2nncn2C1`: the Kp uu at 4 h was under 0.1.
